Several values for one entry are separate records, joined by “and”; a condition that tells them apart may be missing. Identical values can stand only once.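 Interpolation was linear, between the two tested concentrations surrounding the appropriate level; five concentrations were tested over 48 hours in 96-well plates. At the GI50, growth is halved. At the TGI there is no net growth.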 *1 amine or outer side, *2 acyl side, *3 side chain or, on linkers, in order; H or OH if unused. Where a SMILES comes first, the peptide text is derived from it. [ ]: non-standard residue; d: D form. The star is where a group is joined. X12 = NCCCCC(N[*:1])C(=O)CN1CCCC1C(=O)[*:2]; Pentadecanoyl = CCCCCCCCCCCCCCC(=O)*
Key:
Assay in all cases: NCI tumour cell line growth inhibition, 48 h
RPMI-8226 leukemia = system: RPMI-8226 leukemia
HL-60(TB) leukemia = system: HL-60(TB) leukemia
HS 578T breast = system: HS 578T breast
HOP-92 NSCLC = system: HOP-92 NSCLC
IGROV1 ovarian = system: IGROV1 ovarian
SR leukemia = system: SR leukemia
SN12C renal = system: SN12C renal
SF-295 CNS = system: SF-295 CNS
MDA-MB-435 = system: MDA-MB-435
NCI-H522 lung = system: NCI-H522 lung

SMILES	TGI (RPMI-8226 leukemia)	TGI (HL-60(TB) leukemia) [µM]	TGI (HS 578T breast) [µM]	TGI (HOP-92 NSCLC)	TGI (IGROV1 ovarian) [µM]	TGI (SR leukemia)	TGI (SN12C renal) [µM]	TGI (SF-295 CNS) [µM]	TGI (MDA-MB-435)	TGI (NCI-H522 lung) [µM]	GI50 (RPMI-8226 leukemia) [µM]	GI50 (HL-60(TB) leukemia) [µM]	GI50 (HS 578T breast) [µM]	GI50 (HOP-92 NSCLC) [µM]	GI50 (IGROV1 ovarian) [µM]	GI50 (SR leukemia) [µM]	GI50 (SF-295 CNS) [µM]	GI50 (MDA-MB-435) [µM]	GI50 (NCI-H522 lung) [µM]
O=C1CSC2=NC3=C(COC/C3=C\c3ccc(F)cc3)C(c3ccc(F)cc3)N12 (configuration not stated)	> 100 µM	34.5	> 100	> 100 µM	> 100	> 100 µM	> 100	> 100	> 100 µM	> 100	–	–	–	–	–	–	–	–	–
COc1ccc2c(-c3csc(-c4c[nH]c5ccccc45)n3)c[nH]c2c1	> 24.5 µM	> 100	> 78.7	26.4 µM	> 58.2	> 100 µM	35.9	35.2	> 100 µM	25.4	–	–	–	–	–	–	–	–	–
CCOC(=O)CCN1C(=O)c2c(NC(=O)C(=O)O)cccc2S1(=O)=O	> 100 µM	> 100	> 100	> 100 µM	> 100	> 100 µM	> 100	> 100	> 100 µM	> 100	–	–	–	–	–	–	–	–	–
COC1OC(=O)C(OC)C(OC)C1OC (configuration not stated)	> 100 µM	> 100	> 100	> 100 µM	> 100	> 100 µM	> 100	> 100	> 100 µM	> 100	–	–	–	–	–	–	–	–	–
Nc1nn2cc(-c3ccccc3)[n+](CC(=O)c3ccccc3)c2s1	37.3 µM	> 100	43.6	35.4 µM	> 100	48 µM	> 100	> 100	> 100 µM	26.1	–	–	–	–	–	–	–	–	–
COc1ccc(C(OCC2OC(n3ccc(Oc4c(F)c(F)c(F)c(F)c4F)nc3=O)CC2OP(OCCC#N)N(C(C)C)C(C)C)(c2ccccc2)c2ccc(OC)cc2)cc1 (configuration not stated)	> 100 µM	> 100	> 100	> 100 µM	> 100	> 100 µM	> 100	> 100	> 100 µM	> 100	–	–	–	–	–	–	–	–	–
CCOC(=O)C1=C(C)N(c2ccc(Cl)cc2)C2(O)C=CC(=O)C3C(=O)N(c4ccccc4)C(=O)C132 (configuration not stated)	3.77 µM	6.21	12.8	1.96 µM	3.11	1.14 µM	5.28	5.25	6.83 µM	2.38	–	–	–	–	–	–	–	–	–
N#Cc1nc(-c2ccccn2)c(-c2ccccn2)nc1C#N	> 100 µM	> 29.2	29.1	> 45.6 µM	22.2	> 33.9 µM	> 100	7.92	22.4 µM	16.6	–	–	–	–	–	–	–	–	–
Cc1nc2cccc(F)c2c(=O)n1-c1nnc(C2CC2)s1	> 10 µM	> 10	> 10	> 10 µM	> 10	> 10 µM	> 10	> 10	> 10 µM	> 10	–	–	–	–	–	–	–	–	–
CCCCCCCCCCCCCCC(=O)NC(CCCCN)C(=O)CN1CCCC1C(=O)NCC(=O)NC(Cc1ccccc1)C(=O)N1CCCC1C(=O)NC(CO)C(=O)NC(Cc1ccc(O)cc1)C(=O)NC(CCCCN)C(=O)NC(CC(C)C)C(=O)NC(CCCN=C(N)N)C(=O)N1CCCC1C(=O)NCC(N)=O (configuration not stated) (Pentadecanoyl-[X12]GFPSYKLRPG-NH2; configuration not given here)	30.8 µM	90.8	> 100	37.4 µM	57.3	50.8 µM	–	57.3	89.3 µM	55.6	14.7	27.3	38.6	15.9	19.5	16.2	26.2	28.2	23.1
O=C(Nc1ccccc1C(=O)O)C(=Cc1ccccc1O)NC(=O)c1ccccc1	> 100 µM	> 100	> 100	> 100 µM	> 100	> 100 µM	> 100	> 100	> 100 µM	> 100	–	–	–	–	–	–	–	–	–
NC(=O)c1ccc(S(=O)(=NS(=O)(=O)c2ccccc2)c2ccc(C(N)=O)cc2)cc1	> 100 µM	> 100	> 100	> 100 µM	> 100	> 100 µM	> 100	> 100	> 100 µM	> 100	–	–	–	–	–	–	–	–	–
Cc1cnc2cc(Cl)ccc2c1SCC(=O)O	> 100 µM	> 100	> 100	> 100 µM	> 100	> 100 µM	> 100	> 100	> 100 µM	> 100	–	–	–	–	–	–	–	–	–
Clc1ccc(C2=NNC(c3cccc(Cl)c3)C2)cc1 (configuration not stated)	41 µM	> 100	> 100	38.2 µM	5.07	> 100 µM	53.2	92.6	41.8 µM	14.4	–	–	–	–	–	–	–	–	–
O=C1CSC(c2cc3cc(Br)ccc3nc2Cl)N1c1ccc(F)c(Cl)c1 (configuration not stated)	> 50 µM	> 50	> 50	> 50 µM	> 50	> 50 µM	> 50	> 50	> 50 µM	> 50	–	–	–	–	–	–	–	–	–
CSC(=N/N=C(\C)c1ccc(S(=O)(=O)N(C)c2ccccc2)cc1)SC	> 100 µM	> 100	> 100	> 100 µM	> 100	> 100 µM	> 100	> 100	> 100 µM	> 100	–	–	–	–	–	–	–	–	–
CC(=O)OC1COC(n2c(N)c(C#N)c(-c3ccccc3)c(C#N)c2=S)C(OC(C)=O)C1OC(C)=O (configuration not stated)	58.7 µM and 68.3 µM	44.8	> 100	> 100 µM and 92.6 µM	> 100	46.3 µM and 52.2 µM	> 100	> 100	93.6 µM and 61.2 µM	> 100	–	–	–	–	–	–	–	–	–
CC(NC1=NCCO1)c1ccco1 (configuration not stated)	> 100 µM	> 100	> 100	> 100 µM	> 100	> 100 µM	> 100	> 100	> 100 µM	> 100	–	–	–	–	–	–	–	–	–
CO/C=C(/C(=O)OC)c1ccccc1[C@H]1C[C@@H]1c1ccccc1	38.1 µM	63.3	> 100	92.4 µM	58.1	76.5 µM	90.3	98.2	43.3 µM	32	–	–	–	–	–	–	–	–	–
[O-][n+]1cc(SCc2ccccc2)ncc1SCc1ccccc1	> 10 µM	> 10	> 10	> 10 µM	> 10	> 10 µM	> 10	> 10	> 10 µM	> 10	–	–	–	–	–	–	–	–	–
O=C1CCc2c(sc3ncnc(Nc4cccc(Br)c4)c23)C1	> 20.3 µM	7.56	> 79.8	9.21 µM	12.6	7.82 µM	12.7	15.3	3.82 µM	6.17	–	–	–	–	–	–	–	–	–
CC1=NNC(N)=N/C1=C\C(Sc1ccc(Cl)cc1)c1ccc(Cl)cc1Cl (configuration not stated)	61.2 µM	22.2	44.2	> 50.5 µM	21.9	> 100 µM	62.4	52.9	> 76.6 µM	18.6	–	–	–	–	–	–	–	–	–
CCOC(=O)N1c2c(c3ccccc3n2C(=O)OCC)C(=O)C(OC)N1C(=O)OCC (configuration not stated)	> 100 µM	49.8	73.3	> 100 µM	> 100	45.1 µM	> 100	59.4	> 100 µM	41.2	–	–	–	–	–	–	–	–	–
COc1nc2ncc([C@@H](O)[C@H](O)CO)nc2c(=O)[nH]1	> 100 µM	> 100	> 100	> 100 µM	> 100	> 100 µM	> 100	> 100	> 100 µM	> 100	–	–	–	–	–	–	–	–	–
O=C(OCC(OC(=O)c1ccccc1)C1CC(C(O)C2CCCCC2)C(=O)O1)c1ccccc1 (configuration not stated)	78.9 µM	37	> 100	> 100 µM	> 100	44.8 µM	> 100	> 100	> 100 µM	> 100	–	–	–	–	–	–	–	–	–
O=C(CSCC(=O)N/N=C\c1cccc(Br)c1)N/N=C\c1cccc(Br)c1	–	> 100	35.7	47 µM	47	66.1 µM	35.2	29.9	44.7 µM	51.9	–	–	–	–	–	–	–	–	–
CC(=O)N1C(=O)/C(=C\C(=O)c2ccc(Cl)cc2)c2ccccc21	97.1 µM	5.24	> 57.3	35 µM	33.2	6.51 µM	32.1	52.7	36.5 µM	26.9	–	–	–	–	–	–	–	–	–
COc1ccc(C2CCc3c(cnc4nc(N)nc(N)c34)C2)cc1 (configuration not stated)	> 100 µM	> 100	> 100	12.3 µM	> 100	> 100 µM	> 100	> 100	> 100 µM	44.9	–	–	–	–	–	–	–	–	–

From PubChem BioAssay (NCI)
